According to Sander's compilation of Henry's law constants (doi:10.1021/es970763v):

Test: Henry solubility constant Hcp at 298.15 K (mol/(m3 Pa))
Conditions: reference: Welke et al. (1998)

Row | Structure (SMILES) | Henry solubility constant Hcp
1 | CC#N [ethanenitrile] | 0.34
2 | c1ccccc1 [benzene] | 0.0016
3 | CC(C)=O [propanone] | 0.096
4 | C=CCCl [3-chloro-1-propene] | 0.0037
5 | CC(Cl)CCl (stereo not drawn) [1,2-dichloropropane] | 0.0055
6 | ClCCl [dichloromethane] | 3.7
7 | Cc1ccccc1 [methylbenzene] | 0.0014
8 | C=C(C)C1CC=C(C)CC1 (stereo not drawn) [1-methyl-4-(1-methylethenyl)-cyclohexene] | 0.00024
9 | CCC[N+](=O)[O-] [1-nitropropane] | 0.16
10 | CCCOC(C)=O [propyl ethanoate] | 0.037
11 | CCCCOC(C)=O [butyl ethanoate] | 0.027
12 | C=CC#N [2-propenenitrile] | 0.031
13 | Cc1ccccc1C [1,2-dimethylbenzene] | 0.0022
14 | C=Cc1ccccc1 [ethenylbenzene] | 0.0025
15 | CC(=O)CC(C)C [4-methyl-2-pentanone] | 0.047
16 | ClCC1CO1 (stereo not drawn) [(chloromethyl)-oxirane] | 0.29
17 | CCOC(C)=O [ethyl ethanoate] | 0.034
18 | Clc1ccccc1 [chlorobenzene] | 0.0027
